Patent publication US8318954B2, “Cleavable carnitine compound” (Nou Life Sciences, Inc., priority 2006, dated 2012)
“Also recorded” adds a separate entry of the source.

Key:
[1] = Hydrolysis study of LC Conjugate (pH/time study, followed by TLC); type: physicochemical
Protocol: Control: Free lipoic acid 1% solution in methanol/water
Substrate: LC Conjugate, 3% solution in methanol
A study on the stability and cleavability of LC Conjugate was performed in water at pH ranged from 5.5 to 8.0 at RT (20° C.).
The pH was adjusted using NaOH and HCl solutions.
Since substrate and cleaved products are non-UV sensitive, TLC was used to follow the progress of hydrolysis.

C. elegans [2] = assay: Thermal avoidance (TAV) 11 step dose response testing; type: in vivo; settings: highest concentration of LC, laser intensities 0% to 100% in 10% intervals, quadruplicate
Protocol: One 24 well microtiter plate was set up and incubated overnight on the shaker at 20° C. Each well on the plate was set up with 600 L3/L4-stage N2 animals in NGM with a 1:20 dilution of concentrated HB101 E. coli (food source) in a volume of 300 μl. Before the animal/HB101 solution was added, test compounds were pipetted into wells. For DMSO controls and compound stocks/dilutions in DMSO (LC) 3 μl was added to each well (1:100 dilutions). No OD620 measurements were taken but the animals were visually scored after 22 h incubation).
Dose Responses—setup & general notes on analysis: Same as for previous dose response experiments except that the data collection settings were modified. Per plate settings for the dose response experiments were as follows: […]

C. elegans [3] = assay: Toxicity testing in C. elegans, 96 well plate, bacterial clearance (OD620); type: in vivo; settings: highest concentration tested, 2 mM; L1-stage N2 animals, OD620 up to 44 hours; listed as LC
Protocol: The work plan included a i) characterization of the compounds for toxicity in C. elegans and then, using subtoxic concentrations, a ii) characterization of compound effects on neuronal sensitivity as detected by TAV technology. Toxicity characterization follows a well established standard operating protocol used in previous toxicity-type assays in C. elegans. The initial TAV characterization of compound-mediated effects on C. elegans used a number of compound concentrations and incubation times that were selected by NemaRx as being most likely to detect any TAV-related effects that the compounds may have. […] 0% provides a ‘background’ measure, 6% typically gives intermediate TAV responses (and as such should provide a good starting point to detect compound-mediated increased TAV responses), and 12% usually gives robust responses. No obvious effects were detected for either of the four compounds. While the experimental setup provides a good first pass, the limitation lies in the relatively small number of animals that are assayed at each intensity (30). Subtle effects compound-mediated up-regulation at 6% laser intensity may be missed. • Single Intensity Testing: The two highest non-toxic compound concentrations for each of the four compounds were tested at 6% laser intensity. The number of datapoints collected was between 50-80 LA and >100 for the three other compounds. […] The experiment was carried out in quadruplicate. […] Stock Dilution Setup
Two 96 well microtiter plates set up which were incubated at 20 C (both 96 well plates were identical, i.e. the experiment was done in duplicate). Each well on the plates was set up with 100 L1-stage N2 animals in NGM with a 1:20 dilution of concentrated HB101 E. coli (food source) in a volume of 50 μl. Compounds (see below) were then added to the wells. For water controls and compound stocks/dilutions in water (DH LA, NAC) 1 μl was added to each well (1:50 dilutions). For DMSO controls and compound stocks/dilutions in DMSO (LA) 0.5 μl was added to each well (1:100 dilutions). […]

mice and rats = settings: mice and rats, cited from earlier work
Wobbler mice = settings: twenty days oral, acetyl L-carnitine 200 mg/kg, carnitine mixture 200 mg/kg, α-lipoic acid 50 mg/kg; cited from earlier work
rats = settings: 10 mg/kg cisplatin s.c. seven days, oral 300 mg/kg acetyl L-carnitine, 300 mg/kg carnitine mixture, 50 mg/kg α-lipoic acid; cited from earlier work
diabetic rats [4] = settings: streptozocin diabetic rats, sciatic nerve; amount administered not specified; cited from earlier work
[5] = system: streptozotocin-induced diabetic rats; settings: 20 mg/kg/day for two weeks, six weeks after diabetes induction; vs untreated diabetic rats; cited from earlier work
diabetic rats [6] = settings: diabetic rat, 30 days after sciatic nerve cutting; diet: 200 mg/kg acetyl L-carnitine, 200 mg/kg carnitine mixture, 50 mg/kg α-lipoic acid daily; cited from earlier work
[7] = system: diabetic polyneuropathy patients; settings: cited from earlier work

Acetyl-L-Carnitine-Lipoic acid conjugate [LC Conjugate]
cleavability ([1]; under experimental conditions): completely cleavable
Rate of hydrolysis (cleavage) ([1]; water, pH 5.5 to 8.0, RT): pH dependent
hydrolysis ([1]; water, pH 6.0, RT (20° C.), TLC, visual observation): Mild hydrolysis
rate of hydrolysis ([1]; water, pH 7.0 and above, RT (20° C.), TLC, visual observation): quite noticeable
time within which almost complete hydrolysis was noted ([1]; water, pH 8.0, RT (20° C.), TLC, visual observation): ≤ 90 min
stability ([1]; water, under pH 5.0, RT (20° C.), TLC, visual observation): stable
sensitivity / response rate in 11 step dose response (C. elegans [2]; listed as LC): increases sensitivity not at lower stimulus intensities, but instead at higher intensities
sensitivity / response rate in 11 step dose response (C. elegans [2]; listed as Lipoic Acid+N-Acetyl Carnitine conjugate): Possible higher response rate at higher stimulus intensities
toxicity (C. elegans [3]): No toxic effects; also recorded: no toxicity observed

O=C(O)CCCCC1CCSS1 (centres unmarked) [LA, Lipoic acid]
tolerability and toxicity (mice and rats; individually or in combination at high doses): good tolerability and limited toxicity
dose that can be parenterally administered (mice and rats; parenteral): ≤ 100 mg/kg
% increase in running time (Wobbler mice): 40 ± 3.9%
Equilibrium time (rats): 9.9 ± 0.8 s
NMCV (diabetic rats [4]): 39.9 ± 2.1 m/sec
sciatic endoneutral blood flow [5]: improved
sciatic motor nerve NCV [5]: improved
Density of tibial nerve degenerate elements (diabetic rats [6]): 0.20 ± 0.04 per 100 nm^2
Number of tibial nerve degenerate elements (diabetic rats [6]): 590 ± 0.70
neuropathic symptoms and defects ([7]; 600 mg i.v. per day for 3 weeks): appears to reduce pain, paraethesia and numbness, and to improve neuropathic defects
neuropathic defects and cardiac autonomic neuropathy ([7]; subsequent oral treatment for 4-7 months): reduces neuropathic defects an improves cardiac autonomic neuropathy
